Experiment [1] deals with T1, human progesterone receptor-A [PRA] isoform (Homo sapiens, UniProt P06401).
T1 construct: host or cells: insect SF21 cells (baculovirus)
T1 sequence (P06401 1-769 isoform P06401-2): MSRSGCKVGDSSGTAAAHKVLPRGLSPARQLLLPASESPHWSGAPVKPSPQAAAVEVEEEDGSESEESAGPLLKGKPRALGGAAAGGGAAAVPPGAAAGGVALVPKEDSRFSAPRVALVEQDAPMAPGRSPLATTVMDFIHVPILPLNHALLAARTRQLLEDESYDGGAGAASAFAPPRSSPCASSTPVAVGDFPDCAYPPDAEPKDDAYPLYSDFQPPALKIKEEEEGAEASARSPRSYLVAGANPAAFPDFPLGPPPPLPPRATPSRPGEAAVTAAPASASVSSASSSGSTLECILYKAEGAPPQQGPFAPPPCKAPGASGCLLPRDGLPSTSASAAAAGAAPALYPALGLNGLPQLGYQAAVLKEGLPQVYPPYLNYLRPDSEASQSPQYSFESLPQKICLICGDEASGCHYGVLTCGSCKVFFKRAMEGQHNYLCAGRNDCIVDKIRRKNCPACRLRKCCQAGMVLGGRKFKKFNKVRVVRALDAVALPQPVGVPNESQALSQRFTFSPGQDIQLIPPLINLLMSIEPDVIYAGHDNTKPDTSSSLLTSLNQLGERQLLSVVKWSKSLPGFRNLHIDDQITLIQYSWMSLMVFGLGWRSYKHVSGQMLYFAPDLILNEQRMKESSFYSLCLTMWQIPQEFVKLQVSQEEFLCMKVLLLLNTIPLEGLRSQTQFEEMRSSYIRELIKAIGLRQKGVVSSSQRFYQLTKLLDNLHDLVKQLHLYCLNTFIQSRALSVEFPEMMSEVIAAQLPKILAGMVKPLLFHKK
Kind of experiment: Radioligand binding with human progesterone receptor cytosol ([3H]-progesterone competition). The settings on record: read-out: Ki (nM) PR.

Experiment [2] addresses T2, human glucocorticoid receptor-α [GRX] isoform (Homo sapiens, UniProt P04150).
T2 construct: host or cells: insect SF21 cells (baculovirus)
T2 sequence (P04150 1-777): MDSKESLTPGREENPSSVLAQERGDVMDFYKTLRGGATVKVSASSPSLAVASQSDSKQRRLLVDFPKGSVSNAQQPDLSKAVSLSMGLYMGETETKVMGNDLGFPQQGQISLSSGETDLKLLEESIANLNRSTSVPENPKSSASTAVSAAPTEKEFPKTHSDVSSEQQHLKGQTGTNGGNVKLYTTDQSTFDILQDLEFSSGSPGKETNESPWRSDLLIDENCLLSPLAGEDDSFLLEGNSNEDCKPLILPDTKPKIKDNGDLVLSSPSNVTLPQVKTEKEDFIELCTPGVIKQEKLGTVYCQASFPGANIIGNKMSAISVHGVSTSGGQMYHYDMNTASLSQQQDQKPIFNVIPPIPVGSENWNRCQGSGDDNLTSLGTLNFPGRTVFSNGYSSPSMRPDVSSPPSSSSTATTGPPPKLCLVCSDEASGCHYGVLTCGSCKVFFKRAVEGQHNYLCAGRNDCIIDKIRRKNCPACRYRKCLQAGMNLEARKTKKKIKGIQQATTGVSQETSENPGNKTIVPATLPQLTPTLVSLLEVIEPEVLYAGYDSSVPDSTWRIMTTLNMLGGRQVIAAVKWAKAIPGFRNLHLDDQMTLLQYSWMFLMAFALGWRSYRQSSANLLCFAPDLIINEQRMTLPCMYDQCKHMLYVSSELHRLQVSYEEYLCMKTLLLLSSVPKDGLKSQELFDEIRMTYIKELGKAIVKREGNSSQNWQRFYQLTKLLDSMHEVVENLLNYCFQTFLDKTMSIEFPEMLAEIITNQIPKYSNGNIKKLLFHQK
Kind of experiment: Radioligand binding with human glucocorticoid receptor cytosol ([3H]-dexamethasone competition). The following applies: read-out: Ki (nM) GR.

Setting [3] is: PRA cytosol expressed in insect SF21 cells, [3H]Prog ~0.8 nM, 4° C. overnight, Ki by Cheng-Prusoff, KL ~4.5 nM.
Where [4] appears, read: GRX cytosol expressed in insect SF21 cells, [3H]-Dex ~0.9 nM, 4° C. overnight, Ki by Cheng-Prusoff, KL ~[…].

Where two headings read alike, the source gives them in different places.

Broadly, the Ki is a measure of affinity in units of concentration, obtained from inhibition or displacement.

For the compound `COc1cccc2c1-c1ccc3c(c1C(CC(=O)N(C)C)O2)C(C)=CC(C)(C)N3` (stereo not shown) [Example 63, 2,5-Dihydro-10-methoxy-2,2,4,N,N-pentamethyl-1H-[1]benzopyrano[3,4-f]quinoline-5-acetamide], the Ki in experiment [1] (setting [3]) was at least 10000 nM; in experiment [2] (setting [4]), 511 nM.
With `COc1cccc2c1-c1ccc3c(c1C(CC(=O)NC1CC1)O2)C(C)=CC(C)(C)N3` (stereo not shown) [Example 65, N-Cyclopropyl-2,5-Dihydro-10-methoxy-2,2,4-trimethyl-1H-[1]benzopyrano[3,4-f]quinoline-5-acetamide], the Ki in experiment [1] (setting [3]) was at least 10000 nM; in experiment [2] (setting [4]), 591 nM.
The matching figures for `COc1cccc2c1-c1ccc3c(c1C(C1C=CC(=O)O1)O2)C(C)=CC(C)(C)N3` (stereo not shown) [Example 67, 5-(2,5-Dihydro-10-methoxy-2,2,4-trimethyl-1H-[1]benzopyrano[3,4-f]quinolin-5-yl)2(5H)-furanone]: at least 10000 nM and 21.7 nM.
Regarding `C=CCCC1Oc2cccc(OC)c2-c2ccc3c(c21)C(C)=CC(C)(C)N3` (stereo not shown) [Example 68, 5-(32-Butenyl)-2,5-dihdro-10-methoxy-2,2,4-trimethyl-1H -1H-[1]benzopyrano[3,4-f]quinoline], the Ki in experiment [1] (setting [3]) turned out to be 9050 nM; in experiment [2] (setting [4]) it was 8 nM.
As for `CCc1cccc2c1-c1ccc3c(c1C(c1ccccc1)O2)C(C)=CC(C)(C)N3` (stereo not shown) [Example 70, 10-Ethyl-2,5-dihydro-2,2,4-trimethyl-5-phenyl-1H-[1]benzopyrano[3,4-f]quinoline], the inhibition constant Ki in experiment [1] (setting [3]) turned out to be 7300 nM; in experiment [2] (setting [4]), 25.5 nM.
The matching figures for `CC1=CC(C)(C)Nc2ccc3c(c21)C(c1ccccc1)Oc1cccc(C)c1-3` (stereo not shown) [Example 71, 2,5-Dihydro-2,2,4,10-tetrametnyl-5-phenyl-1H-[1]benzopyrano[3,4-f]quinoline]: 484 nM and 7.7 nM.
The like results for `CCc1cccc2c1-c1ccc3c(c1C(c1cc(Cl)cc(Cl)c1)O2)C(C)=CC(C)(C)N3` (stereo not shown) [Example 72, 5-(3,5-Dichlorophenyl)-10-ethyl-2,5-dihydro-2,2,4-trimethyl-1H-[1]benzopyrano[3,4-f]quinoline] were, in that order, 1450 nM and 17.8 nM.
The like results for `CNc1cccc2c1-c1ccc3c(c1C(c1cc(Cl)cc(Cl)c1)O2)C(C)=CC(C)(C)N3` (stereo not shown) [Example 73, 5-(3,5-Dichlorophenyl)-2,5-dihydro-2,2,4,N-tetramethyl-1H[1]benzopyrano[3,4-f]quinolin-10-amine] were, in that order, 4500 nM and 10.3 nM.
On to `C=CCNc1cccc2c1-c1ccc3c(c1C(c1cc(Cl)cc(Cl)c1)O2)C(C)=CC(C)(C)N3` (stereo not shown) [Example 74, 5-(3,5-Dichlorophenyl)-2,5-dihydro-2,2,4-trimethyl-N-(2-propenyl)-1H-[1]benzopyrano[3,4-f]quinolin-10-amine], for which the figures for the inhibitory constant (Ki) in experiment [1] (setting [3]) and in experiment [2] (setting [4]) were 4880 nM and 11.9 nM, respectively.
The matching figures for `C#CCOc1cccc2c1-c1ccc3c(c1C(c1ccccc1)O2)C(C)=CC(C)(C)N3` (stereo not shown) [Example 75, 2,5-Dihydro-2,2,4-trimethyl-5-phenyl-10-(2-propynyloxy)-1H-[1]benzopyrano[3,4-f]quinoline]: 13800 nM and 7.3 nM.
The matching figures for `C=CCOc1cccc2c1-c1ccc3c(c1C(c1ccccc1)O2)C(C)=CC(C)(C)N3` (stereo not shown) [Example 76, 2,5-Dihydro-2,2,4-trimethyl-5-phenyl-10-(2-prenyloxy)-1H-[1]benzopyrano[3,4-f]quinoline]: at least 10000 nM and 152 nM.
The like results for `C=CCC1Oc2cccc(CO)c2-c2ccc3c(c21)C(C)=CC(C)(C)N3` (stereo not shown) [Example 77, 2,5-Dihydro-2,2,4-trimethyl-5-(2-propenyl)-1H-[1]benzopyrano[3,4-f]quinoline-10-methanol] were, in that order, 173 nM and 1.6 nM.
Turning to `CCOc1cccc2c1-c1ccc3c(c1C(c1cc(Cl)cc(Cl)c1)O2)C(C)=CC(C)(C)N3` (stereo not shown) [Example 79, 5-(3,5-Dichlorophenyl)-10-ethoxy-2,5-dihydro-2,2,4-trimethyl-1H-[1]benzopyrano[3,4-f]quinoline], the Ki is at least 10000 nM in experiment [1] (setting [3]) and 19.2 nM in experiment [2] (setting [4]).
The like results for `CC1=CC(C)(C)Nc2ccc3c(c21)C(c1cc(Cl)cc(Cl)c1)Oc1cccc(O)c1-3` (stereo not shown) [Example 80, 5-(3,5-Dichlorophenyl)-2,5-dihydro-2,2,4-trimethyl-1H-[1]benzopyrano[3,4-f]quinolin-10-ol] were, in that order, at least 10000 nM and 168 nM.
For `COC(=O)Oc1cccc2c1-c1ccc3c(c1C(c1cc(Cl)cc(Cl)c1)O2)C(C)=CC(C)(C)N3` (stereo not shown) [Example 81], the figures for the Ki in experiment [1] (setting [3]) and in experiment [2] (setting [4]) were at least 10000 nM and 155 nM, respectively.
The like results for `C=CCC1Oc2cccc(O)c2-c2ccc3c(c21)C(C)=CC(C)(C)N3` (stereo not shown) [Example 82, 2,5-Dihydro-2,2,4-trimethyl-5-(2-propenyl)-1H-1benzopyrano[3,4-f]quinolin-10-ol] were, in that order, 327 nM and 22.9 nM.
Take `C=CCC1Oc2cccc(OC(F)(F)Br)c2-c2ccc3c(c21)C(C)=CC(C)(C)N3` (stereo not shown) [Example 83, 10-(Bromodifluoromethoxy)-2,5-dihyro-2,2,4-trimethyl-5-(2-propenyl)-1H-[1]benzopyrano[3,4-f]quinoline]: the Ki stood at 2210 nM in experiment [1] (setting [3]) and 54.8 nM in experiment [2] (setting [4]).
With `COC(=O)Oc1cccc(C2Oc3cccc(OC)c3-c3ccc4c(c32)C(C)=CC(C)(C)N4)c1` (stereo not shown) [Example 84, [3-(2,5-Dihydro-10-methoxy-2,2,4-trimethyl-1H-[1]benzopyrano[3,4-f]quinolin-5-yl)phenyl]methylcarbonate], the Ki in experiment [1] was at least 10000 nM; in experiment [2] it was 17.3 nM.
Consider `COc1cccc(C2Oc3cccc(OC)c3-c3ccc4c(c32)C(C)=CC(C)(C)N4)c1` (stereo not shown) [Example 85, 2,5-Dihydro-10-methoxy-5-(3-methoxyphenyl)-2,2,4-trimethyl-1H-[1]benzopyrano[3,4-f]quinoline], for which the Ki was at least 10000 nM in experiment [1] (setting [3]) and 3.5 nM in experiment [2] (setting [4]).
The matching figures for `C=CCOc1cccc(C2Oc3cccc(OC)c3-c3ccc4c(c32)C(C)=CC(C)(C)N4)c1` (stereo not shown) [Example 86, 2,5-Dihydro-10-methoxy-2,2,4-trimethyl-5-[3-(2-propenyloxy)phenyl]-1H-[1]benzopyrano[3,4-f]quionline]: at least 10000 nM and 2.1 nM.
The matching figures for `COc1cccc2c1-c1ccc3c(c1C(c1cccc(OCc4ccccc4)c1)O2)C(C)=CC(C)(C)N3` (stereo not shown) [Example 87, 2,5-Dihydro-10-methoxy-2,2,4-trimethyl-5-[3-(phenylmethoxy)phenyl]-1H[1]benzopyrano[3,4-f]quinoline]: at least 10000 nM and 4.7 nM.
The like results for `COc1cccc2c1-c1ccc3c(c1C(c1cccc(OCC4CC4)c1)O2)C(C)=CC(C)(C)N3` (stereo not shown) [Example 88, 5-[3-(Cyclopropylmethoxy)phenyl]-2,5-dihydro-10-methoxy-2,2,4-trimethyl-1H-[1]benzopyrano[3,4-f]quinoline] were, in that order, 15300 nM and 6 nM.
In the case of `COc1cccc2c1-c1ccc3c(c1C(c1cccc(OCCN4CCCCC4)c1)O2)C(C)=CC(C)(C)N3` (stereo not shown) [Example 89, 2,5-Dihydro-10-methoxy-2,2,4-trimethyl-5-[3-[2-(1-piperidinyl)ethoxy]pheny]-1H-[1]benzopyrano[3,4-f]quinoline], the Ki in experiment [1] (setting [3]) is at least 10000 nM; in experiment [2] (setting [4]), 275 nM.

For the origin of these results see US6506766B1 (Abbott Laboratories, priority 1998, dated 2003).
